Experimental findings from ChEMBL document CHEMBL1129846, “Synthesis and antiproliferative activity of 2-O-allyl-1--D-arabinofuranosyl-uracil, -cytosine and -adenine” (Bioorg Med Chem Lett, 1997) are described below.

A value given as a limit tells only on which side of the number the result lay.

What all share (assay type): functional, cell-based
The subject of one assay is L1210. The experiment in a line: Tested for its antiproliferative activity on murine leukemia L1210 cells. As to conditions: Mus musculus.
Assay [1] is described as follows: Compound was evaluated for its antiproliferative activity on human T-lymphocyte CEM cells. As to conditions: CCRF-CEM.
A short description of assay [2]: Compound was evaluated for its antiproliferative activity on human T-lymphocyte Molt4/C8 cells. Particulars: MOLT-4.

Broadly, the IC50 is the concentration at which inhibition is half-maximal. Low readings indicate greater potency in that assay, high ones weaker potency in that assay. `C=CCO[C@H]1[C@H](O)[C@@H](CO)O[C@H]1n1ccc(N)nc1=O`: the IC50 with L1210 was 127 µM; in assay [1], 127 µM; in assay [2] it was 588 µM.

In the case of `O=c1ccn([C@@H]2O[C@H](CO)[C@@H](O)[C@H]2O)c(=O)[nH]1` [URIDINE], the IC50 (in the assay on L1210; in assay [1]; in assay [2]) was greater than 200 µM each time.

As for `C=CCO[C@H]1[C@H](O)[C@@H](CO)O[C@H]1n1cnc2c(N)ncnc21`, the IC50 with L1210 was found to be 250 µM; in assay [1], 72 µM; in assay [2], 88 µM.

For `C=CCO[C@H]1[C@H](O)[C@@H](CO)O[C@H]1n1ccc(=O)[nH]c1=O`, the IC50 (with L1210; in assay [1]; in assay [2]) was greater than 500 µM throughout.

In the case of `Nc1ncnc2c1ncn2[C@@H]1O[C@H](CO)[C@@H](O)[C@@H]1O` [VIDARABINE], the figures for the IC50 (in the assay on L1210; in assay [1]; in assay [2]) were 14.2 µM, 24.8 µM and 11.9 µM, respectively.

In the case of `Nc1ccn([C@@H]2O[C@H](CO)[C@@H](O)[C@@H]2O)c(=O)n1` [CYTARABINE], the IC50 stood at 0.031 µM in the assay on L1210, 0.0037 µM in assay [1] and 0.03 µM in assay [2].
